The values that follow are results of earlier work, collected in US20020018777A1, “STERILIZATION OF VIRUS INFECTED PLASMA” (priority 1995, published 2002).

The conditions of the series: concentrated BPL, animals.

`O=C1CCO1` [BPL, β-propiolactone]: the carcinogenicity entry was “carcinogenic”.
